Source: patent publication US6346260B1, “Microbicidal active ingredients” (Ciba Specialty Chemicals Corporation, priority 1999, dated 2002)
Converted amounts (≈) assume the structure as drawn.

Key:
Format in all cases: cell-based
[1] = tested on: Staphylococcus hominis DSM 20368; experiment: MIC in microtitre plates, Staphylococcus hominis; details: DSM20368, Table 2, 48 hours at 37° C., ≦20% growth
Protocol: (§1) Determination of Antimicrobial Activity in Accordance with the Microtitre Plate Method Determination of the Minimum Inhibitory Concentration (MIC value) in Microtitre Plates casein-soybean flour-peptone bouillon for the preparation of the precultures of the test bacteria and yeast. Staphylococcus hominis DSM 20328 The test substances are predissolved in dimethyl sulfoxide (DMSO) and tested in a dilution series of 1:2. Bacteria and yeast are cultured overnight in CASO bouillon, the mould on mycological slant agar and rinsed off with 10 ml of 0.85% sodium chloride solution (+0.1% TritonX-100). All test organisms are adjusted to an organism count of 1-5*10^6 CFU/ml with 0.85% sodium chloride solution. The test substances are prepipetted into microtitre plates in an amount of 8 μl per well. Previously diluted test organism suspensions are diluted 1:100 in CASO bouillon (bacteria and yeast) and Sabouraud 2% glucose bouillon (mould) and added to the test substances in an amount of 192 μl per well. The test batches are incubated for 48 hours at 37° C. (bacteria and yeast) or for 5 days at 28° C. (mould). After incubation, the growth is determined by reference to the turbidity of the test batches (optical density) at 620 nm in a microplate reader. The minimum inhibitory concentration (MIC value) is the concentration of substance at which (compared with the growth of the control) an appreciable inhibition of the growth (≦20% growth) of the test organisms is ascertained. One microtitre plate is used for each test organism and substance concentration. All substances are tested in duplicate.

[2] = tested on: Candida albicans ATCC 10231; experiment: MIC in microtitre plates, Candida albicans; details: ATCC10231; Table 2; Candida albicans ATCC 10231; 48 hours at 37° C.; ≦20% growth; read-out: MIC CA
Protocol: as §1, with “Candida albicans ATCC 10231” for “Staphylococcus hominis DSM 20328”

[3] = tested on: Escherichia coli NCTC 8196; experiment: MIC in microtitre plates, Escherichia coli; details: NCTC8196; Table 2; Escherichia coli NCTC 8196; 48 hours at 37° C.; ≦20% growth; read-out: MIC EC
Protocol: as §1, with “Escherichia coli NCTC 8196” for “Staphylococcus hominis DSM 20328”

[4] = tested on: Aspergillus niger ATCC 6275; experiment: MIC in microtitre plates, Aspergillus niger; details: ATCC6275, 120 h; Table 2; Aspergillus niger ATCC 6275; 5 days at 28° C.; ≦20% growth; read-out: MIC AN
Protocol: as §1, with “Mycological slant agar” for “casein-soybean flour-peptone bouillon”, “preculture” for “preparation”, “moulds. Aspergillus niger ATCC 6275” for “the precultures of the test bacteria and yeast. Staphylococcus hominis DSM 20328”

[5] = tested on: Pseudomonas aeruginosa CIP A-22; experiment: MIC in microtitre plates, Pseudomonas aeruginosa; details: CIPA22; Table 2; Pseudomonas aeruginosa CIP-A 22; 48 hours at 37° C.; ≦20% growth; read-out: MIC PA
Protocol: as §1, with “Pseudomonas aeruginosa CIP A-22” for “Staphylococcus hominis DSM 20328”

O=C(CC(=O)c1cccs1)c1ccc(O)cc1 [(103)]
MIC [1]: > 120 µg/mL | MIC [2]: > 120 µg/mL | MIC [3]: > 120 µg/mL | MIC [4]: > 120 µg/mL | MIC [5]: > 120 µg/mL

COc1ccccc1C(=O)CC(=O)c1ccc(O)cc1 [(105)]
MIC [1]: > 120 µg/mL | MIC [2]: > 120 µg/mL | MIC [3]: > 120 µg/mL | MIC [4]: > 120 µg/mL | MIC [5]: > 120 µg/mL

Cc1ccccc1C(=O)CC(=O)c1ccc(O)cc1 [(106)]
MIC [1]: > 120 µg/mL | MIC [2]: > 120 µg/mL | MIC [3]: > 120 µg/mL | MIC [4]: > 120 µg/mL | MIC [5]: > 120 µg/mL

COc1ccc(C(=O)CC(=O)c2ccc(O)cc2)cc1OC [(107)]
MIC [1]: > 120 µg/mL | MIC [2]: > 120 µg/mL | MIC [3]: 120 µg/mL (≈ 400 µM) | MIC [4]: 120 µg/mL (≈ 400 µM) | MIC [5]: > 120 µg/mL

COc1cc(C(=O)CC(=O)c2ccc(O)cc2)cc(OC)c1OC [(108)]
MIC [1]: > 120 µg/mL | MIC [2]: > 120 µg/mL | MIC [3]: > 120 µg/mL | MIC [4]: > 120 µg/mL | MIC [5]: > 120 µg/mL

COC(=O)c1cccc(C(=O)CC(=O)c2ccc(O)cc2)c1 [(109)]
MIC [1]: > 120 µg/mL | MIC [2]: > 120 µg/mL | MIC [3]: > 120 µg/mL | MIC [4]: > 120 µg/mL | MIC [5]: > 120 µg/mL

O=C(CC(=O)c1cccc(C(F)(F)F)c1)c1ccc(O)cc1 [(110)]
MIC [1]: > 120 µg/mL | MIC [2]: > 120 µg/mL | MIC [3]: 60 µg/mL (≈ 195 µM) | MIC [4]: 60 µg/mL (≈ 195 µM) | MIC [5]: > 120 µg/mL

O=C(CC(=O)c1ccc(O)cc1)c1ccccc1 [(111)]
MIC [1]: > 120 µg/mL | MIC [2]: > 120 µg/mL | MIC [3]: > 120 µg/mL | MIC [4]: > 120 µg/mL | MIC [5]: > 120 µg/mL

Cc1ccc(O)c(C(=O)CC(=O)c2ccccc2)c1 [(112)]
MIC [1]: > 120 µg/mL | MIC [2]: > 120 µg/mL | MIC [3]: > 120 µg/mL | MIC [4]: > 120 µg/mL | MIC [5]: > 120 µg/mL

Cc1cc(O)c(C(=O)CC(=O)c2ccccc2)cc1Cl [(113)]
MIC [1]: > 120 µg/mL | MIC [2]: > 120 µg/mL | MIC [3]: > 120 µg/mL | MIC [4]: > 120 µg/mL | MIC [5]: > 120 µg/mL

O=C(CC(=O)c1cc(Br)ccc1O)c1ccccc1 [(114)]
MIC [1]: > 120 µg/mL | MIC [2]: > 120 µg/mL | MIC [3]: > 120 µg/mL | MIC [4]: > 120 µg/mL | MIC [5]: > 120 µg/mL

O=C(CC(=O)c1ccccc1O)c1ccccc1 [(115)]
MIC [1]: > 120 µg/mL | MIC [2]: > 120 µg/mL | MIC [3]: > 120 µg/mL | MIC [4]: > 120 µg/mL | MIC [5]: > 120 µg/mL
